Experimental data as given in ChEMBL document CHEMBL5723035, “Affinity Biochemical Literature for EUbOPEN Chemogenomic Library” (2024).
Blank lines part the entries; values can stand above or below the molecule they belong to. Residues, ends and D or L forms follow the SMILES beside them. *: point of attachment. Cbz = O=C(OCc1ccccc1)*; Boc = CC(C)(C)OC(=O)*; CH2F = FC*

Tests used:
[1] = target: T1, Histone-lysine N-methyltransferase EZH1 (Homo sapiens, UniProt Q92800); test: Affinity Biochemical interaction: (inhibition of EZH1 for both SAM and peptide substrates using a Flashplate assay to measure the transfer of a tritiated methyl group from SAM to the peptide) EUB0002228a EZH1; assay type: functional; parameters: mode of action Inhibitor, recommended concentration 1 uM
[2] = target: T1, Histone-lysine N-methyltransferase EZH1; test: Affinity Biochemical interaction: (ELISA-based protein substrate methylation assay) EUB0002228a EZH1; assay type: functional; parameters: mode of action Inhibitor, recommended concentration 1 uM
[3] = target: Monocarboxylate transporter 1 (Homo sapiens, UniProt P53985); test: Affinity Biochemical interaction: (Displacement of radiolabelled [3H]-BAY-8002) EUB0001677b SLC16A1; parameters: mode of action Inhibitor, recommended concentration 1 uM
[4] = target: T2, Histone acetyltransferase KAT7 (Homo sapiens, UniProt O95251); test: Affinity Biochemical interaction: (AlphaScreen) EUB0001094a MYST2; assay type: functional; parameters: mode of action Inhibitor, recommended concentration 1 uM
[5] = target: T2, Histone acetyltransferase KAT7; test: Affinity Biochemical interaction: (SPR) EUB0001094a MYST2; parameters: mode of action Inhibitor, recommended concentration 1 uM
[6] = target: T3, Histone acetyltransferase KAT6A (Homo sapiens, UniProt Q92794); test: Affinity Biochemical interaction: (SPR) EUB0001094a MYST3; parameters: mode of action Inhibitor, recommended concentration 1 uM
[7] = target: T3, Histone acetyltransferase KAT6A; test: Affinity Biochemical interaction: (AlphaScreen) EUB0001094a MYST3; assay type: functional; parameters: mode of action Inhibitor, recommended concentration 1 uM
[8] = target: Calpain-2 catalytic subunit (Homo sapiens, UniProt P17655); test: Affinity Biochemical interaction: (Colorimetric assay, lysis of casein substrate and analysis of protease inhibition by reading wavelength at 595 nm) EUB0002195a CAPN2; assay type: functional; parameters: mode of action Inhibitor, recommended concentration 1 uM
Cathepsin B = Cathepsin B (Homo sapiens, UniProt P07858); test: Affinity Biochemical interaction: (Colorimetric assay, lysis of casein substrate and analysis of protease inhibition by reading wavelength at 595 nm) EUB0002195a CTSB; assay type: functional; parameters: mode of action Inhibitor, recommended concentration 1 uM
Procathepsin L = Procathepsin L (Homo sapiens, UniProt P07711); test: Affinity Biochemical interaction: (Colorimetric assay, lysis of casein substrate and analysis of protease inhibition by reading wavelength at 595 nm) EUB0002195a CTSL; assay type: functional; parameters: mode of action Inhibitor, recommended concentration 1 uM
[9] = Affinity Biochemical interaction: (enzymatic assay (fluorogenic substrate cleavage)) EUB0002134a CAPN2
Histone deacetylase 3 = Histone deacetylase 3 (Homo sapiens, UniProt O15379)
Caspase-3 [10] = target: T4, Caspase-3 (Homo sapiens, UniProt P42574); test: (§1) Affinity Biochemical interaction: (enzymatic assay (fluorogenic substrate cleavage)) EUB0002178aAD CASP3; assay type: functional; parameters: mode of action Inhibitor, recommended concentration 1 uM
T4 sequence (P42574 whole entry): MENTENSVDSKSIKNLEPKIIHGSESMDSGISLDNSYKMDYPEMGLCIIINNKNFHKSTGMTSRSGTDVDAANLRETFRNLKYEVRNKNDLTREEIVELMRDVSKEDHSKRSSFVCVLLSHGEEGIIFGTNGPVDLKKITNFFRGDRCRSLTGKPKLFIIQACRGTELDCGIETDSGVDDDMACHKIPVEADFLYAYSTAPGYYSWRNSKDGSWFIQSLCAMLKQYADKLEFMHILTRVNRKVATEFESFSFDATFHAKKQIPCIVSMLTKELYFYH

Caspase-3 [11] = target: T4, Caspase-3; test: as §1; assay type: functional; parameters: mode of action Inhibitor, recommended concentration 1 uM; remark: listed apart in the source
[12] = target: Diacylglycerol lipase-beta (Homo sapiens) (UniProt Q8NCG7); test: Affinity Biochemical interaction: (Gel-based competitive ABPP) EUB0002547a DAGLB; assay type: functional; parameters: recommended concentration 1 uM; conditions: Affinity Biochemical Source Knowledge https://pubs.acs.org/doi/epdf/10.1021/jm400898x
Caspase-5 = Caspase-5 (Homo sapiens, UniProt P51878); test: Affinity Biochemical interaction: (enzymatic assay (fluorogenic substrate cleavage)) EUB0002202a CASP5; assay type: functional; parameters: mode of action Inhibitor, recommended concentration 1 uM
[13] = target: T5, WD repeat-containing protein 5 (Homo sapiens, UniProt P61964); test: Affinity Biochemical interaction: (Fluorescence polarisation anisotropy) EUB0002166aAD WDR5; assay type: functional; parameters: mode of action Inhibitor, recommended concentration 1 uM
[14] = target: T5, WD repeat-containing protein 5; test: Affinity Biochemical interaction: (TR-FRET) EUB0002166aAD WDR5; assay type: functional; parameters: mode of action Inhibitor, recommended concentration 1 uM
Caspase-6 = Caspase-6 (Homo sapiens, UniProt P55212); test: Affinity Biochemical interaction: (enzymatic assay (fluorogenic substrate cleavage)) EUB0002190aAD CASP6; assay type: functional; parameters: mode of action Inhibitor, recommended concentration 1 uM
Caspase-9 = Caspase-9 (Homo sapiens, UniProt P55211); test: Affinity Biochemical interaction: (enzymatic assay (fluorogenic substrate cleavage)) EUB0002190aAD CASP9; assay type: functional; parameters: mode of action Inhibitor, recommended concentration 1 uM
Caspase-8 = Caspase-8 (Homo sapiens, UniProt Q14790); test: Affinity Biochemical interaction: (enzymatic assay (fluorogenic substrate cleavage)) EUB0002190aAD CASP8; assay type: functional; parameters: mode of action Inhibitor, recommended concentration 1 uM
Caspase-1 = Caspase-1 (Homo sapiens, UniProt P29466); test: Affinity Biochemical interaction: (enzymatic assay (fluorogenic substrate cleavage)) EUB0002190aAD CASP1; assay type: functional; parameters: mode of action Inhibitor, recommended concentration 1 uM
Caspase-3 [15] = target: T4, Caspase-3; test: Affinity Biochemical interaction: (enzymatic assay (fluorogenic substrate cleavage)) EUB0002190aAD CASP3; assay type: functional; parameters: mode of action Inhibitor, recommended concentration 1 uM
[16] = target: Histone-lysine N-methyltransferase SMYD3 (Homo sapiens, UniProt Q9H7B4); test: Affinity Biochemical interaction: (inhibition of methylation activity, scintillation proximity assay utilizing [3 H]-SAM with specific product capture of biotin-tagged peptides on streptavidin SPA beads) EUB0002243aAD SMYD3; assay type: functional; parameters: mode of action Inhibitor, recommended concentration 1 uM
Chain of Histone-lysine N-methyltransferase SMYD3 (Q9H7B4 whole entry): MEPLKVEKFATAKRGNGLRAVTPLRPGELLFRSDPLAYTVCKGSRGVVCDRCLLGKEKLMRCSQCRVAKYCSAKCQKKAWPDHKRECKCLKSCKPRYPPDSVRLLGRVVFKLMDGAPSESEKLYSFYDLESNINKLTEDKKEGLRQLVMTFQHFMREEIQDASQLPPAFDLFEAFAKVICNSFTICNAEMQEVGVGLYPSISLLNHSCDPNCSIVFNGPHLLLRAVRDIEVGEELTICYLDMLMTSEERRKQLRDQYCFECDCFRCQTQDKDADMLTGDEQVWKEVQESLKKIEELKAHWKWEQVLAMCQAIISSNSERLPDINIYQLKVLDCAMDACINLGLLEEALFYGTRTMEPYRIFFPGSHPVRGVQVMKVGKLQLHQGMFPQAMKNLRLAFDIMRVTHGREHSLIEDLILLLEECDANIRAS

Chain of Monocarboxylate transporter 1 (P53985 whole entry): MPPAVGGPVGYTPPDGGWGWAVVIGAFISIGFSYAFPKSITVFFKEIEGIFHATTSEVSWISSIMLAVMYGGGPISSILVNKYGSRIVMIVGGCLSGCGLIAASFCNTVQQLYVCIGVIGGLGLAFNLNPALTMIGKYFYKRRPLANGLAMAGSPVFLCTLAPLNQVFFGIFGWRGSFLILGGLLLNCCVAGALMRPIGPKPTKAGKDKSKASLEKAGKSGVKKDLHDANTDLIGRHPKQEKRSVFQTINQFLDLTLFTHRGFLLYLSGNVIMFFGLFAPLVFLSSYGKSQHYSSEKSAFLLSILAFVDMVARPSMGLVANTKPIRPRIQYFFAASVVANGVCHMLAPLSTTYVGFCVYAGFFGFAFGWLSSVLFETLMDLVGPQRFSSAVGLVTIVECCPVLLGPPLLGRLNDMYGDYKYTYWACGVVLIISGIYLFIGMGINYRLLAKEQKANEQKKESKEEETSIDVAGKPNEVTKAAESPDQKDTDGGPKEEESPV
T1 sequence (Q92800 whole entry): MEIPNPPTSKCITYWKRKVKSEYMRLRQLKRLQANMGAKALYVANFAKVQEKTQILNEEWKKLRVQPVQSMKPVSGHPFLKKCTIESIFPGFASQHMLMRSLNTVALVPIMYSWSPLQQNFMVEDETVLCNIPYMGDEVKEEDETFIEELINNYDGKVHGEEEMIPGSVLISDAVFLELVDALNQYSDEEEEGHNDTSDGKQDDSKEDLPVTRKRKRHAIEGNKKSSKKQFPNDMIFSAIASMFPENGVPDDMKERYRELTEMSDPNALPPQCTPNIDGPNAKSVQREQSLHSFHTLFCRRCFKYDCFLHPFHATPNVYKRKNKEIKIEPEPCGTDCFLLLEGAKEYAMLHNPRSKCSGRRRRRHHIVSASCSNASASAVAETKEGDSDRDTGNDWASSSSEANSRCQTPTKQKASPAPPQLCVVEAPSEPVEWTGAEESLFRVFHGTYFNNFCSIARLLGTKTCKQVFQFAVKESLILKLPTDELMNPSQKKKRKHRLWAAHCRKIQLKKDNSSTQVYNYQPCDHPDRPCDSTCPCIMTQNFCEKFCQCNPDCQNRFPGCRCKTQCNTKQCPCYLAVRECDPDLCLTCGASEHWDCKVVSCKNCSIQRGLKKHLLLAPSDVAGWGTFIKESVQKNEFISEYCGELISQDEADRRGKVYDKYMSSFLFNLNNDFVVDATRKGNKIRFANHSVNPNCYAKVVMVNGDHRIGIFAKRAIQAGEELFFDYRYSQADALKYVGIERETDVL
T3 sequence (Q92794 whole entry): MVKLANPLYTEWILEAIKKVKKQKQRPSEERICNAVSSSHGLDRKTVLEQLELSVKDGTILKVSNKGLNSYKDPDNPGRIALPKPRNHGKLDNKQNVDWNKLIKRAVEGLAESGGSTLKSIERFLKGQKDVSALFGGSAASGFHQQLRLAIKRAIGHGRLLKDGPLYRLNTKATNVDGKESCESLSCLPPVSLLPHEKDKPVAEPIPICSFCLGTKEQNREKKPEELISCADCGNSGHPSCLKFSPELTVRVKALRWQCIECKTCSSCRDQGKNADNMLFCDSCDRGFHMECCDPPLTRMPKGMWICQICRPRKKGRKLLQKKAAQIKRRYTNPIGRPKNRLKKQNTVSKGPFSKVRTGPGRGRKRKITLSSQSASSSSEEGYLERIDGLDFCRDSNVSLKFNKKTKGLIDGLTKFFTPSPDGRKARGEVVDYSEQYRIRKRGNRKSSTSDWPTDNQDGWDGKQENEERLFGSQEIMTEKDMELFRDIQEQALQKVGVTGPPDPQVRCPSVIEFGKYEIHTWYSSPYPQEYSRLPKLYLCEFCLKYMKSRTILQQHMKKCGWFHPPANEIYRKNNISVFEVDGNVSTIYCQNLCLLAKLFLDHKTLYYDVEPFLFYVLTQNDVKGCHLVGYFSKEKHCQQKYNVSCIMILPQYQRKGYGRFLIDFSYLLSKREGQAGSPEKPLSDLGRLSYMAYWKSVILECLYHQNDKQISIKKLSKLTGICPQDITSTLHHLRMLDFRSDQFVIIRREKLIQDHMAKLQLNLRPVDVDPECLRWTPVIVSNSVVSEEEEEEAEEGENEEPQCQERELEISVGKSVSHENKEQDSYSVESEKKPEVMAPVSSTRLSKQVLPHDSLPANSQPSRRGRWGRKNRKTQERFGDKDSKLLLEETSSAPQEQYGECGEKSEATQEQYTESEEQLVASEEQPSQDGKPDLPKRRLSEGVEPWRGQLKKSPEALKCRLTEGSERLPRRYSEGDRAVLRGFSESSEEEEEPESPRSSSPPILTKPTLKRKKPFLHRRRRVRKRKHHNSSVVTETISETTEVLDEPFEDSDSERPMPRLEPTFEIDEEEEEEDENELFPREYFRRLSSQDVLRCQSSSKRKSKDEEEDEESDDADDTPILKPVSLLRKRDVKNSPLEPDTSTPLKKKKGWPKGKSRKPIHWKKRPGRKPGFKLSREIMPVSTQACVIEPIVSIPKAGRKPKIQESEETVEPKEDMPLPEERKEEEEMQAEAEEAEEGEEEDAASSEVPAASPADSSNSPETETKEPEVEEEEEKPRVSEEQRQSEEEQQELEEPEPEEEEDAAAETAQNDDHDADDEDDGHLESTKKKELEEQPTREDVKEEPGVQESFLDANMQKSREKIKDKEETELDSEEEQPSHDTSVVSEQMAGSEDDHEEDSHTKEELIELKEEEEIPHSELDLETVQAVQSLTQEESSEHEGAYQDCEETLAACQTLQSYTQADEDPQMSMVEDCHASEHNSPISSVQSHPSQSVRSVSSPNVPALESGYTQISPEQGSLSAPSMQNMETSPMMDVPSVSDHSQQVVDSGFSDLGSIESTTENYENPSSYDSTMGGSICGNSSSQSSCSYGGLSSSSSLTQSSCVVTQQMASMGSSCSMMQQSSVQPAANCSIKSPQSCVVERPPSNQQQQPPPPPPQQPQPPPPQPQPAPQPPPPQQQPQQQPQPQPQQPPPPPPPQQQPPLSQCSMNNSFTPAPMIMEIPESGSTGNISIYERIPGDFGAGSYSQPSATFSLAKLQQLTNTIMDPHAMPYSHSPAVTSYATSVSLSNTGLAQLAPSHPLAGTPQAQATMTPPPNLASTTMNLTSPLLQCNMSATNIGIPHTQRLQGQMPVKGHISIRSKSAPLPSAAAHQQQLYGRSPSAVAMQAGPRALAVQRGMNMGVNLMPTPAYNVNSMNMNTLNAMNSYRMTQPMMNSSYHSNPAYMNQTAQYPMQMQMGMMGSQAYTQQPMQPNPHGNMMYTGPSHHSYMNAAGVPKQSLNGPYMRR
T2 sequence (O95251 whole entry): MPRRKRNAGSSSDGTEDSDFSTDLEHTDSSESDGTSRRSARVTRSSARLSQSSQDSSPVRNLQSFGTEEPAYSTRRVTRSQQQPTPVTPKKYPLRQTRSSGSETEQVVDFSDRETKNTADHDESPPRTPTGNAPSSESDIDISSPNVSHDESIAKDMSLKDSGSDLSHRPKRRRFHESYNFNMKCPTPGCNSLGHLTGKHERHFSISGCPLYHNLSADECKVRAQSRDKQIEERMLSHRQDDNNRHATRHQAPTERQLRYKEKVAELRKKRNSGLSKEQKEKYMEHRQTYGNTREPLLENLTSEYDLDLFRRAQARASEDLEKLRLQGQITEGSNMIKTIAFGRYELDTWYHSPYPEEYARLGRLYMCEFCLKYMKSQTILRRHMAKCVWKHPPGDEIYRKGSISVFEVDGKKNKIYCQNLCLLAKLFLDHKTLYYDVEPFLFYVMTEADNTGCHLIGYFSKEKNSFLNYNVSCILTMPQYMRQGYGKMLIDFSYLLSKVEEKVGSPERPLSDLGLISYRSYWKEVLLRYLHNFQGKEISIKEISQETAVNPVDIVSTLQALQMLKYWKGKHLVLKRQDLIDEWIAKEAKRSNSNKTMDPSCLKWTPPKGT
Chain of Caspase-6 (P55212 24-179 limits assumed): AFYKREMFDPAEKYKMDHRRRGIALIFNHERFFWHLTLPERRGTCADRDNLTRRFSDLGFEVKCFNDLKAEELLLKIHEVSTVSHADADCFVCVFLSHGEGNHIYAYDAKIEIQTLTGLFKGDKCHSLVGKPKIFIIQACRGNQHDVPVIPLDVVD
Chain of Caspase-6 (P55212 194-293 limits assumed): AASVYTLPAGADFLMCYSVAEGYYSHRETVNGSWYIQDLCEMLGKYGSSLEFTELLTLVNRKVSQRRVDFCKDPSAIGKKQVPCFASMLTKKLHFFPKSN
Chain of Caspase-5 (P51878 137-327 limits assumed): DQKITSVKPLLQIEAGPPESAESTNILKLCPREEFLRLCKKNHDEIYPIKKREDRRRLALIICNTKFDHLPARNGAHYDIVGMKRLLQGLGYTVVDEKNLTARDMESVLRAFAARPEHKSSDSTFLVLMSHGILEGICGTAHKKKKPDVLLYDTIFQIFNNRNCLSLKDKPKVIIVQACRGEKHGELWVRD
Chain of Caspase-5 (P51878 347-434 limits assumed): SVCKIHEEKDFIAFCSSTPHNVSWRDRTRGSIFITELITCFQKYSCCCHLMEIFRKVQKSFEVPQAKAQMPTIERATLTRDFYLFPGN

IC50 [8]: 78 nM | IC50 (Cathepsin B): 15 nM | IC50 (Procathepsin L): 1.6 nM
SMILES: CC(C)C[C@@H](C=O)NC(=O)[C@@H](NS(=O)(=O)c1ccc(F)cc1)C(C)C

IC50 (Caspase-3 [10]): 13.6 nM | IC50 (Caspase-3 [11]): 480 nM
SMILES: CC[C@H](C)[C@H](NC(=O)[C@H](CCC(=O)O)NC(=O)[C@@H](NC(C)=O)C(C)C)C(=O)N[C@H](C=O)CC(=O)O (Ac-VEID-aldehyde)

IC50 (Caspase-5): 340 nM
SMILES: COC(=O)CC[C@H](NC(=O)[C@H](Cc1c[nH]c2ccccc12)NC(=O)OCc1ccccc1)C(=O)N[C@@H](Cc1cnc[nH]1)C(=O)N[C@@H](CC(=O)OC)C(=O)CF (Cbz-WE(OMe)HD(OMe)-CH2F)

Ki (Caspase-6): 52 nM | Ki (Caspase-9): 48 nM | Ki (Caspase-8): 1.6 nM | Ki (Caspase-1): < 12 nM | Ki (Caspase-3 [15]): 42 nM
SMILES: CC(C)[C@H](NC(=O)[C@H](CCC(=O)O)NC(=O)[C@H](C)NC(=O)OC(C)(C)C)C(=O)N[C@H](C=O)CC(=O)O (Boc-AEVD-aldehyde)

The next lines start with the molecule.

SMILES: CCN(c1cc(C#CCN2CCOCC2)cc(C(=O)NCc2c(C)cc(C)[nH]c2=O)c1C)[C@H]1CC[C@H](N(C)CCOC)CC1
Ki [1]: 45 nM | IC50 [2]: 103 nM

SMILES: O=C(Nc1ccccc1C(=O)O)c1cc(S(=O)(=O)c2ccccc2)ccc1Cl
IC50 [3]: 11 nM | Ki [3]: 5.02 nM

SMILES: Cc1cc(-c2ccccc2)cc(C(=O)NNS(=O)(=O)c2cccc(O)c2)c1F
IC50 [4]: 30 nM | Kd [5]: 34 nM | Kd [6]: 7 nM | IC50 [7]: 17 nM

SMILES: CCCC(NC(=O)C(CC(C)C)NC(=O)OCc1ccccc1)C(=O)C(=O)NCc1ccccn1 (racemic)
Ki [9]: 120 nM

SMILES: CN(C)Cc1ccc(S(=O)(=O)n2ccc(/C=C/C(=O)NO)c2)cc1
IC50 (Histone deacetylase 3): 50.1 nM

SMILES: CC(C)(C)OC(=O)NCCCCCN(CCc1ccccc1)C(=O)n1cc(-c2ccc(OC(F)(F)F)cc2)nn1
inhibition [12]: 73%

SMILES: Cc1nc(F)ccc1-c1cc(Cn2ccn(C)c2=N)cc(C(=O)NCc2ccc(Cl)c(Cl)c2)c1
Ki [13]: < 0.001 nM | Ki [14]: 0.106 nM

SMILES: CN(C)CCCN(CC[C@H](N)C(=O)O)C[C@H]1O[C@@H](n2cnc3c(N)ncnc32)[C@H](O)[C@@H]1O
IC50 [16]: 130 nM | Ki [16]: 14 nM
